ChEMBL document CHEMBL1201862, “PubChem BioAssay data set” (2004)
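Cells were grown in 96-well plates and exposed to each compound for 48 hours at five concentrations; endpoints were interpolated linearly between bracketing concentrations, or set to the highest concentration if not reached. GI50 = concentration required for 50% inhibition of growth.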 The source made the active and inactive calls. Cut-off read from the data, not from the text of the source: active = GI50 up to about 1.1 µM and inactive = higher.

Columns and labels:
Test in all cases: NCI tumour cell line growth inhibition, 48 h
A549 = tested on: A549
NCI-H23 = tested on: NCI-H23
HCC 2998 = tested on: HCC 2998
SF-268 = tested on: SF-268
UO-31 = tested on: UO-31
MDA-N = tested on: MDA-N
KM12 = tested on: KM12
SF-539 = tested on: SF-539
NCI-H522 = tested on: NCI-H522
CAKI-1 = tested on: CAKI-1
T47D = tested on: T47D
CCRF-CEM = tested on: CCRF-CEM
SF-295 = tested on: SF-295
MDA-MB-231 = tested on: MDA-MB-231
U-251 = tested on: U-251
HCT-116 = tested on: HCT-116
NCI-H226 = tested on: NCI-H226
TK-10 = tested on: TK-10
786-0 = tested on: 786-0
SK-MEL-5 = tested on: SK-MEL-5
Malme-3M = tested on: Malme-3M
NCI-H460 = tested on: NCI-H460
OVCAR-5 = tested on: OVCAR-5
MOLT-4 = tested on: MOLT-4
OVCAR-4 = tested on: OVCAR-4
K562 = tested on: K562
HOP-62 = tested on: HOP-62
SK-MEL-2 = tested on: SK-MEL-2
MDA-MB-435 = tested on: MDA-MB-435
HOP-92 = tested on: HOP-92
Hs-578T = tested on: Hs-578T
SNB-75 = tested on: SNB-75
PC-3 = tested on: PC-3
IGROV-1 = tested on: IGROV-1
OVCAR-3 = tested on: OVCAR-3
SN12C = tested on: SN12C
DU-145 = tested on: DU-145
COLO 205 = tested on: COLO 205
SK-MEL-28 = tested on: SK-MEL-28
UACC-257 = tested on: UACC-257
HT-29 = tested on: HT-29
ACHN = tested on: ACHN
NCI/ADR-RES = tested on: NCI/ADR-RES
HL-60 = tested on: HL-60
RPMI-8226 = tested on: RPMI-8226
SW-620 = tested on: SW-620
MCF7 = tested on: MCF7
A498 = tested on: A498
LOX IMVI = tested on: LOX IMVI
EKVX = tested on: EKVX
HCT-15 = tested on: HCT-15
SR = tested on: SR
OVCAR-8 = tested on: OVCAR-8
RXF 393 = tested on: RXF 393
BT-549 = tested on: BT-549
UACC-62 = tested on: UACC-62
SNB-19 = tested on: SNB-19
M14 = tested on: M14
SK-OV-3 = tested on: SK-OV-3

SMILES: CS(=O)(=O)OCC1CN(S(C)(=O)=O)c2cc(O)ccc21 (configuration not stated)
- GI50 (A549): 3.43 µM (inactive)
- GI50 (NCI-H23): 1.72 µM (inactive)
- GI50 (HCC 2998): 1.89 µM (inactive)
- GI50 (SF-268): 0.524 µM (active)
- GI50 (UO-31): 3.26 µM (inactive)
- GI50 (MDA-N): 1.91 µM (inactive)
- GI50 (KM12): 2.96 µM (inactive)
- GI50 (SF-539): 2.42 µM (inactive)
- GI50 (NCI-H522): 1.11 µM (active)
- GI50 (CAKI-1): 3.42 µM (inactive)
- GI50 (T47D): 0.498 µM (active)
- GI50 (CCRF-CEM): 1.01 µM (active)
- GI50 (SF-295): 3.42 µM (inactive)
- GI50 (MDA-MB-231): 2.3 µM (inactive)
- GI50 (U-251): 2.36 µM (inactive)
- GI50 (HCT-116): 2.77 µM (inactive)
- GI50 (NCI-H226): 3.33 µM (inactive)
- GI50 (TK-10): 2.37 µM (inactive)
- GI50 (786-0): 3.67 µM (inactive)
- GI50 (SK-MEL-5): 1.69 µM (inactive)
- GI50 (Malme-3M): 2.02 µM (inactive)
- GI50 (NCI-H460): 2.96 µM (inactive)
- GI50 (OVCAR-5): 2.84 µM (inactive)
- GI50 (MOLT-4): 1.22 µM (inactive)
- GI50 (OVCAR-4): 2.67 µM (inactive)
- GI50 (K562): 2.43 µM (inactive)
- GI50 (HOP-62): 2.47 µM (inactive)
- GI50 (SK-MEL-2): 2.59 µM (inactive)
- GI50 (MDA-MB-435): 2.02 µM (inactive)
- GI50 (HOP-92): 3.09 µM (inactive)
- GI50 (Hs-578T): 3.52 µM (inactive)
- GI50 (SNB-75): 2.37 µM (inactive)
- GI50 (PC-3): 2.09 µM (inactive)
- GI50 (IGROV-1): 3.85 µM (inactive)
- GI50 (OVCAR-3): 2.82 µM (inactive)
- GI50 (SN12C): 2.92 µM (inactive)
- GI50 (DU-145): 2.8 µM (inactive)
- GI50 (COLO 205): 2.3 µM (inactive)
- GI50 (SK-MEL-28): 3.47 µM (inactive)
- GI50 (UACC-257): 2.68 µM (inactive)
- GI50 (HT-29): 2.81 µM (inactive)
- GI50 (ACHN): 3.18 µM (inactive)
- GI50 (NCI/ADR-RES): 3.09 µM (inactive)
- GI50 (HL-60): 1.87 µM (inactive)
- GI50 (RPMI-8226): 1.87 µM (inactive)
- GI50 (SW-620): 2.84 µM (inactive)
- GI50 (MCF7): 1.53 µM (inactive)
- GI50 (A498): 2.64 µM (inactive)
- GI50 (LOX IMVI): 3.17 µM (inactive)
- GI50 (EKVX): 4.37 µM (inactive)
- GI50 (HCT-15): 3.1 µM
- GI50 (SR): 2.05 µM (inactive)
- GI50 (OVCAR-8): 2.67 µM (inactive)
- GI50 (RXF 393): 1.19 µM (inactive)
- GI50 (BT-549): 2.19 µM (inactive)

SMILES: COc1cc(C)cc(C(=O)/C=C/c2ccccc2)c1O
- GI50 (A549): 30.3 µM (inactive)
- GI50 (NCI-H23): 16.9 µM (inactive)
- GI50 (HCC 2998): 18.8 µM (inactive)
- GI50 (SF-268): 25.6 µM (inactive)
- GI50 (UO-31): 17.8 µM (inactive)
- GI50 (MDA-N): 23.7 µM (inactive)
- GI50 (KM12): 18.5 µM (inactive)
- GI50 (NCI-H522): 17.9 µM (inactive)
- GI50 (CAKI-1): 19.5 µM (inactive)
- GI50 (T47D): 11.1 µM (inactive)
- GI50 (CCRF-CEM): 27.7 µM (inactive)
- GI50 (SF-295): 20.9 µM (inactive)
- GI50 (MDA-MB-231): 22.5 µM (inactive)
- GI50 (U-251): 17.2 µM (inactive)
- GI50 (HCT-116): 17.7 µM (inactive)
- GI50 (NCI-H226): 24.2 µM (inactive)
- GI50 (TK-10): 18.6 µM (inactive)
- GI50 (786-0): 17.8 µM (inactive)
- GI50 (SK-MEL-5): 19.8 µM (inactive)
- GI50 (UACC-62): 17.1 µM (inactive)
- GI50 (NCI-H460): 20.2 µM (inactive)
- GI50 (OVCAR-5): 13.8 µM (inactive)
- GI50 (MOLT-4): 30.2 µM (inactive)
- GI50 (OVCAR-4): 20.2 µM (inactive)
- GI50 (K562): 40.6 µM (inactive)
- GI50 (HOP-62): 16.7 µM (inactive)
- GI50 (SK-MEL-2): 18.5 µM (inactive)
- GI50 (MDA-MB-435): 26.9 µM (inactive)
- GI50 (HOP-92): 14.9 µM (inactive)
- GI50 (Hs-578T): 32.8 µM (inactive)
- GI50 (SNB-75): 24.5 µM (inactive)
- GI50 (PC-3): 19.3 µM (inactive)
- GI50 (IGROV-1): 12.6 µM (inactive)
- GI50 (OVCAR-3): 16.5 µM (inactive)
- GI50 (SN12C): 16.9 µM (inactive)
- GI50 (DU-145): 14.1 µM (inactive)
- GI50 (COLO 205): 20 µM (inactive)
- GI50 (SK-MEL-28): 19.4 µM (inactive)
- GI50 (UACC-257): 16.7 µM (inactive)
- GI50 (HT-29): 18.3 µM (inactive)
- GI50 (ACHN): 18.3 µM (inactive)
- GI50 (NCI/ADR-RES): 21.4 µM (inactive)
- GI50 (HL-60): 26.4 µM (inactive)
- GI50 (RPMI-8226): 21.2 µM (inactive)
- GI50 (SW-620): 20.2 µM (inactive)
- GI50 (SNB-19): 16 µM (inactive)
- GI50 (MCF7): 12.1 µM (inactive)
- GI50 (A498): 18.3 µM (inactive)
- GI50 (M14): 16.6 µM (inactive)
- GI50 (SK-OV-3): 29.2 µM (inactive)
- GI50 (LOX IMVI): 17.4 µM (inactive)
- GI50 (EKVX): 19.4 µM (inactive)
- GI50 (HCT-15): 18.1 µM
- GI50 (SR): 30.9 µM (inactive)
- GI50 (OVCAR-8): 19.2 µM (inactive)
- GI50 (RXF 393): 16.3 µM (inactive)
- GI50 (BT-549): 17.4 µM (inactive)
